Source: patent publication US20250340557A1, “PYRIMIDINE DERIVATIVE” (ASKA PHARMACEUTICAL CO., LTD., priority 2022, published 2025)

These molecules were tested against T1, human mPGES-1 (Homo sapiens, UniProt O14684) (assay: Test for mPGES-1 inhibitory activity (microsomal enzyme, PGE2 EIA)). Details: microsomes from COS-1 cells transfected with human mPGES-1 cDNA; substrate PGH2 1 μM; 4° C., 4 minutes; PGE2 measured by EIA; read-out: h mPGES1 IC50.
T1 construct: made in house; host or cells: COS-1 cells (transient transfection; microsomal fraction used as enzyme)
T1 sequence (O14684 1-152): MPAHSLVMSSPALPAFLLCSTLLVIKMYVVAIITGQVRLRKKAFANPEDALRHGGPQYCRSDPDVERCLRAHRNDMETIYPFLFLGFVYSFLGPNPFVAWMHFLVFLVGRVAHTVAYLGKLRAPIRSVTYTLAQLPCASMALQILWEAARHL
Format: biochemical
Method in brief: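 IC50 values were derived from EIA-quantified PGE2 after a 4 min, 4 °C reaction with PGH2 at 1 μM final, stopped with ferric chloride/citric acid. Beforehand, compound (2% DMSO final) sat 15 min at 4 °C with human mPGES-1 microsomes from transiently transfected COS-1 cells. Buffer was sodium phosphate pH 7.2 containing 2.5 mM reduced glutathione and 1 mM EDTA.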

Going from `O=c1cc(C(F)(F)F)nc(-c2c(C(F)(F)F)ccc(CNC(=O)[C@H]3C[C@@H](OCc4ccccc4C(F)(F)F)C3)c2F)[nH]1` [Example 143, cis-N-{2-fluoro-3-[6-oxo-4-(trifluoromethyl)-1,6-dihydropyrimidin-2-yl]-4-(trifluoromethyl)benzyl}-3-{[2-(trifluoromethyl)benzyl]oxy}cyclobutane-1-carboxamide] to `O=c1cc(C(F)(F)F)nc(-c2c(C(F)(F)F)ccc(CNC(=O)[C@H]3C[C@H](OCc4cccc(C(F)(F)F)c4)C3)c2F)[nH]1` [Example 144, trans-N-{2-fluoro-3-[6-oxo-4-(trifluoromethyl)-1,6-dihydropyrimidin-2-yl]-4-(trifluoromethyl)benzyl}-3-{[3-(trifluoromethyl)benzyl]oxy}cyclobutane-1-carboxamide], the IC50 falls from 28 nM to < 1 nM.

Same assay, conditions: microsomes of COS-1 cells transfected with human mPGES-1 cDNA; PGH2 1 μM; 4° C., 4 minutes; PGE2 by EIA; read-out: h mPGES1 IC50

Going from `O=c1cc(C(F)(F)F)nc(-c2c(C(F)(F)F)ccc(CNC(=O)[C@H]3C[C@@H](OCc4cccc(C(F)(F)F)c4)C3)c2F)[nH]1` [Example 145, cis-N-{2-fluoro-3-[6-oxo-4-(trifluoromethyl)-1,6-dihydropyrimidin-2-yl]-4-(trifluoromethyl)benzyl}-3-{[3-(trifluoromethyl)benzyl]oxy}cyclobutane-1-carboxamide] to `O=c1cc(C(F)(F)F)nc(-c2c(C(F)(F)F)ccc(CNC(=O)[C@H]3C[C@H](OCc4ccc(C(F)(F)F)cc4)C3)c2F)[nH]1` [Example 146, trans-N-{2-fluoro-3-[6-oxo-4-(trifluoromethyl)-1,6-dihydropyrimidin-2-yl]-4-(trifluoromethyl)benzyl}-3-{[4-(trifluoromethyl)benzyl]oxy}cyclobutane-1-carboxamide], the IC50 falls from 98 nM to 2.1 nM (47-fold).

`O=c1cc(C(F)(F)F)nc(-c2c(C(F)(F)F)ccc(CNC(=O)[C@H]3C[C@@H](OCc4ccc(C(F)(F)F)cc4)C3)c2F)[nH]1` [Example 147, cis-N-{2-fluoro-3-[6-oxo-4-(trifluoromethyl)-1,6-dihydropyrimidin-2-yl]-4-(trifluoromethyl)benzyl}-3-{[4-(trifluoromethyl)benzyl]oxy}cyclobutane-1-carboxamide] and `O=c1cc(C(F)(F)F)nc(-c2c(C(F)(F)F)ccc(CNC(=O)[C@H]3C[C@H](OCc4ccc(F)c(F)c4)C3)c2F)[nH]1` [Example 150, trans-3-[(3,4-difluorobenzyl)oxy]-N-{2-fluoro-3-[6-oxo-4-(trifluoromethyl)-1,6-dihydropyrimidin-2-yl]-4-(trifluoromethyl)benzyl}cyclobutane-1-carboxamide] cannot be ordered by IC50: < 1 nM for the first, < 1 nM for the second.

`O=c1cc(C(F)(F)F)nc(-c2c(C(F)(F)F)ccc(CNC(=O)[C@H]3C[C@H](OCc4ccc(F)cc4F)C3)c2F)[nH]1` [Example 148, trans-3-[(2,4-difluorobenzyl)oxy]-N-{2-fluoro-3-[6-oxo-4-(trifluoromethyl)-1,6-dihydropyrimidin-2-yl]-4-(trifluoromethyl)benzyl}cyclobutane-1-carboxamide] and `O=c1cc(C(F)(F)F)nc(-c2c(C(F)(F)F)ccc(CNC(=O)[C@H]3C[C@H](OCc4ccc(Cl)cc4F)C3)c2F)[nH]1` [Example 149, trans-3-[(4-chloro-2-fluorobenzyl)oxy]-N-{2-fluoro-3-[6-oxo-4-(trifluoromethyl)-1,6-dihydropyrimidin-2-yl]-4-(trifluoromethyl)benzyl}cyclobutane-1-carboxamide] cannot be ordered by IC50: < 1 nM for the first, < 1 nM for the second.

`O=c1cc(C(F)(F)F)nc(-c2c(C(F)(F)F)ccc(CNC(=O)[C@H]3C[C@H](OCc4cc(F)cc(F)c4)C3)c2F)[nH]1` [Example 151, trans-3-[(3,5-difluorobenzyl)oxy]-N-{2-fluoro-3-[6-oxo-4-(trifluoromethyl)-1,6-dihydropyrimidin-2-yl]-4-(trifluoromethyl)benzyl}cyclobutane-1-carboxamide] and `O=c1cc(C(F)(F)F)nc(-c2c(C(F)(F)F)ccc(CNC(=O)[C@H]3C[C@H](OCc4cc(F)cc(Cl)c4)C3)c2F)[nH]1` [Example 159, trans-3-[(3-chloro-5-fluorobenzyl)oxy]-N-{2-fluoro-3-[6-oxo-4-(trifluoromethyl)-1,6-dihydropyrimidin-2-yl]-4-(trifluoromethyl)benzyl}cyclobutane-1-carboxamide] cannot be ordered by IC50: < 1 nM for the first, < 12 nM for the second.

`O=c1cc(C(F)(F)F)nc(-c2c(C(F)(F)F)ccc(CNC(=O)[C@H]3C[C@H](OCc4cccc(F)c4)C3)c2F)[nH]1` [Example 152, trans-N-{2-fluoro-3-[6-oxo-4-(trifluoromethyl)-1,6-dihydropyrimidin-2-yl]-4-(trifluoromethyl)benzyl}-3-[(3-fluorobenzyl)oxy]cyclobutane-1-carboxamide] and `O=c1cc(C(F)(F)F)nc(-c2c(C(F)(F)F)ccc(CNC(=O)[C@H]3C[C@H](OCc4ccc(F)c(Cl)c4)C3)c2F)[nH]1` [Example 157, trans-3-[(3-chloro-4-fluorobenzyl)oxy]-N-{2-fluoro-3-[6-oxo-4-(trifluoromethyl)-1,6-dihydropyrimidin-2-yl]-4-(trifluoromethyl)benzyl}cyclobutane-1-carboxamide] cannot be ordered by IC50: < 1 nM for the first, < 1 nM for the second.

`O=c1cc(C(F)(F)F)nc(-c2c(C(F)(F)F)ccc(CNC(=O)[C@H]3C[C@H](OCc4cccc(F)c4F)C3)c2F)[nH]1` [Example 153, trans-3-[(2,3-difluorobenzyl)oxy]-N-{2-fluoro-3-[6-oxo-4-(trifluoromethyl)-1,6-dihydropyrimidin-2-yl]-4-(trifluoromethyl)benzyl}cyclobutane-1-carboxamide] and `O=c1cc(C(F)(F)F)nc(-c2c(C(F)(F)F)ccc(CNC(=O)[C@H]3C[C@H](OCc4cccc(Cl)c4F)C3)c2F)[nH]1` [Example 155, trans-3-[(3-chloro-2-fluorobenzyl)oxy]-N-{2-fluoro-3-[6-oxo-4-(trifluoromethyl)-1,6-dihydropyrimidin-2-yl]-4-(trifluoromethyl)benzyl}cyclobutane-1-carboxamide] cannot be ordered by IC50: < 1 nM for the first, < 1 nM for the second.

`O=c1cc(C(F)(F)F)nc(-c2c(C(F)(F)F)ccc(CNC(=O)[C@H]3C[C@H](OCc4ccc(F)cc4Cl)C3)c2F)[nH]1` [Example 154, trans-3-[(2-chloro-4-fluorobenzyl)oxy]-N-{2-fluoro-3-[6-oxo-4-(trifluoromethyl)-1,6-dihydropyrimidin-2-yl]-4-(trifluoromethyl)benzyl}cyclobutane-1-carboxamide] and `O=c1cc(C(F)(F)F)nc(-c2c(C(F)(F)F)ccc(CNC(=O)[C@H]3C[C@H](OCc4cc(Cl)ccc4F)C3)c2F)[nH]1` [Example 156, trans-3-[(5-chloro-2-fluorobenzyl)oxy]-N-{2-fluoro-3-[6-oxo-4-(trifluoromethyl)-1,6-dihydropyrimidin-2-yl]-4-(trifluoromethyl)benzyl}cyclobutane-1-carboxamide] cannot be ordered by IC50: < 1 nM for the first, < 1 nM for the second.

`O=c1cc(C(F)(F)F)nc(-c2c(C(F)(F)F)ccc(CNC(=O)[C@H]3C[C@@H](OCc4ccc(F)c(Cl)c4)C3)c2F)[nH]1` [Example 158, cis-3-[(3-chloro-4-fluorobenzyl)oxy]-N-{2-fluoro-3-[6-oxo-4-(trifluoromethyl)-1,6-dihydropyrimidin-2-yl]-4-(trifluoromethyl)benzyl}cyclobutane-1-carboxamide] and `O=c1cc(C(F)(F)F)nc(-c2c(C(F)(F)F)ccc(CNC(=O)[C@H]3C[C@@H](OCc4cc(F)cc(Cl)c4)C3)c2F)[nH]1` [Example 160, cis-3-[(3-chloro-5-fluorobenzyl)oxy]-N-{2-fluoro-3-[6-oxo-4-(trifluoromethyl)-1,6-dihydropyrimidin-2-yl]-4-(trifluoromethyl)benzyl}cyclobutane-1-carboxamide] cannot be ordered by IC50: < 1 nM for the first, < 1 nM for the second.

`O=c1cc(C(F)F)nc(-c2c(C(F)(F)F)ccc(CNC(=O)[C@H]3C[C@H](OCc4ccccc4Cl)C3)c2F)[nH]1` [Example 161, trans-3-[(2-chlorobenzyl)oxy]-N-{3-[4-(difluoromethyl)-6-oxo-1,6-dihydropyrimidin-2-yl]-2-fluoro-4-(trifluoromethyl)benzyl}cyclobutane-1-carboxamide] and `O=c1cc(C(F)F)nc(-c2c(C(F)(F)F)ccc(CNC(=O)[C@H]3C[C@H](OCc4ccccc4C(F)(F)F)C3)c2F)[nH]1` [Example 164, trans-N-{3-[4-(difluoromethyl)-6-oxo-1,6-dihydropyrimidin-2-yl]-2-fluoro-4-(trifluoromethyl)benzyl}-3-{[2-(trifluoromethyl)benzyl]oxy}cyclobutane-1-carboxamide] cannot be ordered by IC50: < 1 nM for the first, < 1 nM for the second.

`O=c1cc(C(F)F)nc(-c2c(C(F)(F)F)ccc(CNC(=O)[C@H]3C[C@H](OCc4cccc(Cl)c4)C3)c2F)[nH]1` [Example 162, trans-3-[(3-chlorobenzyl)oxy]-N-{3-[4-(difluoromethyl)-6-oxo-1,6-dihydropyrimidin-2-yl]-2-fluoro-4-(trifluoromethyl)benzyl}cyclobutane-1-carboxamide] and `O=c1cc(C(F)F)nc(-c2c(C(F)(F)F)ccc(CNC(=O)[C@H]3C[C@H](OCc4ccc(Cl)cc4)C3)c2F)[nH]1` [Example 163, trans-3-[(4-chlorobenzyl)oxy]-N-{3-[4-(difluoromethyl)-6-oxo-1,6-dihydropyrimidin-2-yl]-2-fluoro-4-(trifluoromethyl)benzyl}cyclobutane-1-carboxamide] cannot be ordered by IC50: < 1 nM for the first, < 1 nM for the second.

For `O=c1cc(C(F)F)nc(-c2c(C(F)(F)F)ccc(CNC(=O)[C@H]3C[C@H](OCc4cccc(C(F)(F)F)c4)C3)c2F)[nH]1` [Example 165, trans-N-{3-[4-(difluoromethyl)-6-oxo-1,6-dihydropyrimidin-2-yl]-2-fluoro-4-(trifluoromethyl)benzyl}-3-{[3-(trifluoromethyl)benzyl]oxy}cyclobutane-1-carboxamide], the IC50 was < 1 nM.
